Experiments:
[1] = Unbound brain concentration in P-gp knock out Sprague-Dawley rat at 5 mg/ml/kg, po measured upto 4 hrs by LC-MS analysis; conditions: in vivo
[2] = Ratio of drug concentration in brain to plasma of P-gp knock out Sprague-Dawley rat
[3] = Unbound plasma concentration in P-gp knock out Sprague-Dawley rat at 5 mg/ml/kg, po measured upto 4 hrs by LC-MS analysis
[4] = Unbound brain-to-plasma concentration ratio in P-gp knock out Sprague-Dawley rat

SMILES | Fu [1] | Kp ([2]; brain) | fraction unbound at 4 h ([3]; in vivo) | Kp uu ([4]; brain) | Kp uu ([4]; brain/plasma) | Kp ([2]; brain/plasma) | fraction unbound at 4 h ([3]; plasma) | Fu ([3]; in vivo, 4 h)
CC(C)N(CCC(C(N)=O)(c1ccccc1)c1ccccn1)C(C)C (configuration not stated) [DISOPYRAMIDE] | 0.491 | 1.02 | 0.669 | 0.036 |  |  |  | 
O=c1[nH]c2ccccc2n1CCCN1CCC(n2c(=O)[nH]c3cc(Cl)ccc32)CC1 [DOMPERIDONE] | 0.017 |  | 0.029 |  |  |  |  | 
C=C[C@H]1C[N@@]2CC[C@H]1C[C@@H]2[C@@H](O)c1ccnc2ccc(OC)cc12 [QUINIDINE] |  |  |  | 0.065 |  |  |  | 
Cc1ccc(NC(=O)c2ccc(CN3CCN(C)CC3)cc2)cc1Nc1nccc(-c2cccnc2)n1 [IMATINIB] |  |  |  |  | 0.041 |  |  | 
CN1CC[C@H](c2c(O)cc(O)c3c(=O)cc(-c4ccccc4Cl)oc23)[C@H](O)C1 [ALVOCIDIB] |  |  |  |  | 0.234 | 0.451 | 0.051 | 
COc1ccc(CCN2CCC(Nc3nc4ccccc4n3Cc3ccc(F)cc3)CC2)cc1 [ASTEMIZOLE] | 0.004 | 38.9 | 0.011 | 0.577 |  |  |  | 
O=C(O)CCCN1CCC(OC(c2ccc(Cl)cc2)c2ccccn2)CC1 (configuration not stated) |  |  |  |  | 0.018 | 0.031 | 0.642 | 
Clc1ccc2c(c1)CCc1cccnc1C2=C1CCNCC1 [DESLORATADINE] |  |  |  |  | 0.061 |  | 0.19 | 
CC[C@H](CO)Nc1nc(NCc2ccccc2)c2ncn(C(C)C)c2n1 [SELICICLIB] |  |  |  |  | 0.205 | 1.26 | 0.048 | 
COc1cc2nc(N3CCN(C(=O)c4ccco4)CC3)nc(N)c2cc1OC [PRAZOSIN] |  |  |  |  | 0.164 | 0.247 | 0.264 | 
CC(C)CN(C[C@@H](O)[C@H](Cc1ccccc1)NC(=O)O[C@H]1CCOC1)S(=O)(=O)c1ccc(N)cc1 |  |  |  |  |  |  | 0.129 | 
CCN(CC)CCNC(=O)c1c(C)[nH]c(/C=C2\C(=O)Nc3ccc(F)cc32)c1C [SUNITINIB] |  |  |  |  | 0.414 | 0.481 | 0.007 | 
Cc1nc2n(c(=O)c1CCN1CCC(c3noc4cc(F)ccc34)CC1)CCCC2 [RISPERIDONE] | 0.12 | 1.56 |  |  | 1.38 |  |  | 0.033
C[C@@H](Oc1cc(-c2cnn(C3CCNCC3)c2)cnc1N)c1c(Cl)ccc(F)c1Cl [CRIZOTINIB] |  |  |  |  | 0.017 | 5.55 | 0.03 | 
CC[C@H]1OC(=O)[C@H](C)[C@@H](O[C@H]2C[C@@](C)(OC)[C@@H](O)[C@H](C)O2)[C@H](C)[C@@H](O[C@@H]2O[C@H](C)C[C@H](N(C)C)[C@H]2O)[C@](C)(OC)C[C@@H](C)C(=O)[C@H](C)[C@@H](O)[C@]1(C)O [CLARITHROMYCIN] | 0.113 | 1.96 | 0.377 | 0.014 |  |  |  | 
CN(C)CCc1c[nH]c2ccc(C[C@H]3COC(=O)N3)cc12 [ZOLMITRIPTAN] | 1 | 0.043 | 0.942 | 0.035 |  |  |  | 
COc1cc([C@@H]2c3cc4c(cc3[C@@H](O[C@@H]3O[C@@H]5CO[C@@H](C)O[C@H]5[C@H](O)[C@H]3O)[C@H]3COC(=O)[C@H]23)OCO4)cc(OC)c1O [ETOPOSIDE] | 0.539 | 0.037 | 0.357 | 0.024 |  |  |  | 
COc1ccc2c(c1)c(CC(=O)O)c(C)n2C(=O)c1ccc(Cl)cc1 [INDOMETHACIN] | 0.048 | 0.009 |  | 0.074 |  |  | 0.008 | 
CCN(CC)CCNC(=O)c1cc(Cl)c(N)cc1OC [METOCLOPRAMIDE] | 0.817 | 5.05 | 0.677 | 2.45 |  |  |  | 
C[C@H]1O[C@@H](O[C@H]2[C@@H](O)C[C@H](O[C@H]3[C@@H](O)C[C@H](O[C@H]4CC[C@@]5(C)[C@H](CC[C@@H]6[C@@H]5C[C@@H](O)[C@]5(C)[C@@H](C7=CC(=O)OC7)CC[C@]65O)C4)O[C@@H]3C)O[C@@H]2C)C[C@H](O)[C@@H]1O [DIGOXIN] |  |  | 0.583 |  |  |  |  | 
Cc1nc(Nc2ncc(C(=O)Nc3c(C)cccc3Cl)s2)cc(N2CCN(CCO)CC2)n1.O [DASATINIB] | 0.013 | 0.061 |  | 0.016 |  |  | 0.026 | 
C[C@@H]1C[C@H]2[C@@H]3CCC4=CC(=O)C=C[C@]4(C)[C@@]3(F)[C@@H](O)C[C@]2(C)[C@@]1(O)C(=O)CO [DEXAMETHASONE] |  |  |  |  |  |  | 0.159 | 
CC(C)(C)NC(=O)[C@@H]1C[C@@H]2CCCC[C@@H]2CN1C[C@@H](O)[C@H](Cc1ccccc1)NC(=O)[C@H](CC(N)=O)NC(=O)c1ccc2ccccc2n1 | 0.006 | 0.067 |  | 0.014 |  |  | 0.005 | 
Cc1c(O)cccc1C(=O)N[C@@H](CSc1ccccc1)[C@H](O)CN1C[C@H]2CCCC[C@H]2C[C@H]1C(=O)NC(C)(C)C |  |  |  |  | 0.007 |  | 0.003 | 
Cc1nc2n(c(=O)c1CCN1CCC(c3noc4cc(F)ccc34)CC1)CCCC2O (configuration not stated) [PALIPERIDONE] |  |  |  |  | 0.443 | 0.867 | 0.047 | 

Source: ChEMBL document CHEMBL4823245, “Development of an In Silico Prediction Model for P-glycoprotein Efflux Potential in Brain Capillary Endothelial Cells toward the Prediction of Brain Penetration” (J Med Chem, 2021)
